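Each compound was tested at five concentrations against cells in 96-well plates for 48 hours. GI50 is the concentration that inhibits growth by half. TGI denotes the concentration required for complete inhibition of growth.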
Tests used:
Test in all cases: growth of human tumour cells (NCI), 48 h
786-0 renal = system: 786-0 renal
A498 renal = system: A498 renal
A549 NSCLC = system: A549 NSCLC
ACHN renal = system: ACHN renal
BT-549 breast = system: BT-549 breast
CAKI-1 renal = system: CAKI-1 renal
CCRF-CEM leukemia = system: CCRF-CEM leukemia
COLO 205 colon = system: COLO 205 colon
DU-145 prostate = system: DU-145 prostate
HCC-2998 colon = system: HCC-2998 colon
HCT-116 colon = system: HCT-116 colon
HCT-15 colon = system: HCT-15 colon
HL-60(TB) leukemia = system: HL-60(TB) leukemia
HOP-62 NSCLC = system: HOP-62 NSCLC
HOP-92 NSCLC = system: HOP-92 NSCLC
HS 578T breast = system: HS 578T breast
HT29 colon = system: HT29 colon
IGROV1 ovarian = system: IGROV1 ovarian
K-562 leukemia = system: K-562 leukemia
KM12 colon = system: KM12 colon
LOX IMVI melanoma = system: LOX IMVI melanoma
M14 melanoma = system: M14 melanoma
MALME-3M melanoma = system: MALME-3M melanoma
MCF7 breast = system: MCF7 breast
MDA-MB-231 breast = system: MDA-MB-231 breast
MDA-MB-435 = system: MDA-MB-435
MOLT-4 leukemia = system: MOLT-4 leukemia
NCI-H226 lung = system: NCI-H226 lung
NCI-H23 lung = system: NCI-H23 lung
NCI-H460 lung = system: NCI-H460 lung
NCI-H522 lung = system: NCI-H522 lung
NCI/ADR-RES ovarian = system: NCI/ADR-RES ovarian
OVCAR-3 ovarian = system: OVCAR-3 ovarian
OVCAR-4 ovarian = system: OVCAR-4 ovarian
OVCAR-5 ovarian = system: OVCAR-5 ovarian
OVCAR-8 ovarian = system: OVCAR-8 ovarian
PC-3 prostate = system: PC-3 prostate
RPMI-8226 leukemia = system: RPMI-8226 leukemia
RXF 393 renal = system: RXF 393 renal
SF-268 CNS = system: SF-268 CNS
SF-295 CNS = system: SF-295 CNS
SF-539 CNS = system: SF-539 CNS
SK-MEL-2 melanoma = system: SK-MEL-2 melanoma
SK-MEL-28 melanoma = system: SK-MEL-28 melanoma
SK-MEL-5 melanoma = system: SK-MEL-5 melanoma
SK-OV-3 ovarian = system: SK-OV-3 ovarian
SN12C renal = system: SN12C renal
SNB-19 CNS = system: SNB-19 CNS
SNB-75 CNS = system: SNB-75 CNS
SR leukemia = system: SR leukemia
SW-620 colon = system: SW-620 colon
T-47D breast = system: T-47D breast
TK-10 renal = system: TK-10 renal
U251 CNS = system: U251 CNS
UACC-257 melanoma = system: UACC-257 melanoma
UACC-62 melanoma = system: UACC-62 melanoma
UO-31 renal = system: UO-31 renal

## OCc1ccc(N(Cc2ccc(F)cc2)CC2CC2)cc1Cl
786-0 renal
  GI50: 6.8 µM
  TGI: 21.3 µM
A498 renal
  GI50: 0.0363 µM
  TGI: 0.154 µM
A549 NSCLC
  GI50: 3.16 µM
  TGI: 16.9 µM
ACHN renal
  GI50: 11.7 µM
  TGI: 24 µM
BT-549 breast
  GI50: 14.3 µM
  TGI: 28.2 µM
CAKI-1 renal
  GI50: 6.54 µM
  TGI: 21.9 µM
CCRF-CEM leukemia
  GI50: 15.6 µM
  TGI: 39.9 µM
COLO 205 colon
  GI50: 5.4 µM
  TGI: 17.4 µM
DU-145 prostate
  GI50: 13.3 µM
  TGI: 26.4 µM
HCC-2998 colon
  GI50: 8.82 µM
  TGI: 22.4 µM
HCT-116 colon
  GI50: 0.254 µM
  TGI: 11 µM
HCT-15 colon
  GI50: 10.3 µM
  TGI: 22.9 µM
HL-60(TB) leukemia
  GI50: 5.06 µM
  TGI: 26.3 µM
HOP-62 NSCLC
  GI50: 3.09 µM
  TGI: 16.2 µM
HOP-92 NSCLC
  GI50: 1.61 µM
  TGI: 11.3 µM
HS 578T breast
  GI50: 14.7 µM
  TGI: 38.9 µM
HT29 colon
  GI50: 6.49 µM
  TGI: 20.3 µM
IGROV1 ovarian
  GI50: 0.176 µM
  TGI: 1.19 µM
K-562 leukemia
  GI50: 3.12 µM
  TGI: 17.8 µM
KM12 colon
  GI50: 12.9 µM
  TGI: 25.8 µM
LOX IMVI melanoma
  GI50: 13.2 µM
  TGI: 26.3 µM
M14 melanoma
  GI50: 14.5 µM
  TGI: 29.8 µM
MALME-3M melanoma
  GI50: 14.6 µM
  TGI: 29.9 µM
MCF7 breast
  GI50: 0.585 µM
  TGI: 12.6 µM
MDA-MB-231 breast
  GI50: 11.5 µM
  TGI: 24.3 µM
MDA-MB-435
  GI50: 15.7 µM
  TGI: 31.2 µM
MOLT-4 leukemia
  GI50: 13.7 µM
  TGI: 34.9 µM
NCI-H226 lung
  GI50: 0.0419 µM
  TGI: 0.0943 µM
NCI-H23 lung
  GI50: 4.74 µM
  TGI: 20.2 µM
NCI-H460 lung
  GI50: 0.57 µM
  TGI: 9.47 µM
NCI-H522 lung
  GI50: 11.5 µM
  TGI: 26.3 µM
NCI/ADR-RES ovarian
  GI50: 12.1 µM
  TGI: 28.8 µM
OVCAR-3 ovarian
  GI50: 1.31 µM
  TGI: 4.94 µM
OVCAR-4 ovarian
  GI50: 0.511 µM
  TGI: 7.34 µM
OVCAR-5 ovarian
  GI50: 0.191 µM
  TGI: 0.794 µM
OVCAR-8 ovarian
  GI50: 11.8 µM
  TGI: 25.3 µM
PC-3 prostate
  GI50: 12.1 µM
  TGI: 25.7 µM
RPMI-8226 leukemia
  GI50: 5.47 µM
  TGI: 36 µM
RXF 393 renal
  GI50: 1.29 µM
  TGI: 8.48 µM
SF-268 CNS
  GI50: 14.7 µM
  TGI: 28.7 µM
SF-295 CNS
  GI50: 1.2 µM
  TGI: 11.7 µM
SF-539 CNS
  GI50: 14.7 µM
  TGI: 28.2 µM
SK-MEL-2 melanoma
  GI50: 5.39 µM
  TGI: 19 µM
SK-MEL-28 melanoma
  GI50: 13.1 µM
  TGI: 25.9 µM
SK-MEL-5 melanoma
  GI50: 3.72 µM
  TGI: 16.6 µM
SK-OV-3 ovarian
  GI50: 10.6 µM
  TGI: 22.7 µM
SN12C renal
  GI50: 9.04 µM
  TGI: 21.8 µM
SNB-19 CNS
  GI50: 12.3 µM
  TGI: 25.4 µM
SNB-75 CNS
  GI50: 10.8 µM
  TGI: 23.1 µM
SR leukemia
  GI50: 13.4 µM
  TGI: 34 µM
SW-620 colon
  GI50: 2.38 µM
  TGI: 16.2 µM
T-47D breast
  GI50: 0.271 µM
  TGI: 2.86 µM
TK-10 renal
  GI50: 0.0609 µM
  TGI: 0.398 µM
U251 CNS
  GI50: 1.48 µM
  TGI: 14 µM
UACC-257 melanoma
  GI50: 0.228 µM
  TGI: 1.03 µM
UACC-62 melanoma
  GI50: 0.263 µM
  TGI: 1.74 µM
UO-31 renal
  GI50: 3.43 µM
  TGI: 15.6 µM

From PubChem BioAssay (NCI)
